The values that follow are results of earlier work, collected in paper PMC4404702 (Molecular imaging and biology : MIB : the official …, 2014).

For one data set, the target named is σ1. As to conditions: read-out: Ki−σ1.
For a further data set, the target named is σ2. Conditions: read-out: Ki−σ2.

For `O=C(Cc1cccc(Br)c1)NCc1ccc(F)cc1` [YUN-143, N-(4′-fluorobenzyl)-4-(3-bromophenyl)acetamide], the inhibition constant (Ki) at σ1 was 1.2 ± 0.2 nM; on σ2, 6.1 ± 1.5 nM.

One may read the Ki as the dissociation constant of the complex between target and ligand, obtained from inhibition or displacement.
